Assay results as given in patent US9908868B2, “Isoindolinone compounds as GPR119 modulators for the treatment of diabetes, obesity, dyslipidemia and related disorders” (SANOFI, priority 2014, dated 2018).

target: T1, human GPR119 (Homo sapiens, UniProt Q8TDV5); experiment: Functional cellular assay measuring GPR119-mediated cAMP release (HTRF) in HEK-293 cells stably expressing recombinant human GPR119; type: cell-based; settings: cAMP response, cell line expressing human GPR119, 30 minutes at room temperature
T1 construct: expressed in transfected cells
T1 sequence (Q8TDV5 1-335): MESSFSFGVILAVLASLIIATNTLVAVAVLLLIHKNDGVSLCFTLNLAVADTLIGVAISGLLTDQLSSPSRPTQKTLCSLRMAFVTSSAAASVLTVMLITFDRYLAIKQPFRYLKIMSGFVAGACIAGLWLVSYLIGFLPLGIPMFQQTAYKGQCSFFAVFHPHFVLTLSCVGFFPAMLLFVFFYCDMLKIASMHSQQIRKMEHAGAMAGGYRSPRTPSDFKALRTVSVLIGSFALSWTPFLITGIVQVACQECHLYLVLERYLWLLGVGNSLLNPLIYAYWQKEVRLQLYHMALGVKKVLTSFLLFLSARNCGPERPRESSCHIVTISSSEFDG
In short: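 HEK-293 cells stably expressing recombinant human GPR119, suspended at 400000 cells/mL in HBSS/20 mM HEPES/0.1% BSA/2 mM IBMX, exposed to compound for 30 minutes at room temperature. cAMP detected by HTRF (665/620 nm ratio) after 1 h with reagents in lysis buffer. EC50 taken as concentration giving 50% of maximal activation.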

Row | SMILES | EC50
1 | CN(C)C(=O)CN1Cc2ccc(N3CC[C@@H](Oc4ccc(C(=O)c5ccc(F)cc5)nc4)C3=O)cc2C1=O [Example 2-61, 2-[6-[(3R)-3-[[6-(4-fluorobenzoyl)-3-pyridyl]oxy]-2-oxo-pyrrolidin-1-yl]-1-oxo-isoindolin-2-yl]-N,N-dimethyl-acetamide] | 0.106 µM
2 | CN(C)C(=O)CN1Cc2ccc(N3CC[C@@H](Oc4ccc(C(=O)C5CC5)c(F)c4)C3=O)cc2C1=O [Example 2-62, 2-[6-[(3R)-3-[4-(cyclopropanecarbonyl)-3-fluoro-phenoxy]-2-oxo-pyrrolidin-1-yl]-1-oxo-isoindolin-2-yl]-N,N-dimethyl-acetamide] | 0.059 µM
3 | CN(C)C(=O)CN1Cc2ccc(N3CC[C@@H](Oc4ccc(C(=O)C5CC(F)(F)C5)cc4)C3=O)cc2C1=O [Example 2-63, 2-[6-[(3R)-3-[4-(3,3-difluorocyclobutanecarbonyl)phenoxy]-2-oxo-pyrrolidin-1-yl]-1-oxo-isoindolin-2-yl]-N,N-dimethyl-acetamide] | 0.098 µM
4 | CN(C)C(=O)CN1Cc2ccc(N3CC[C@@H](Oc4ccc(-c5ncc(F)s5)cc4)C3=O)cc2C1=O [Example 2-64, 2-[6-[(3R)-3-[4-(5-fluorothiazol-2-yl)phenoxy]-2-oxo-pyrrolidin-1-yl]-1-oxo-isoindolin-2-yl]-N,N-dimethyl-acetamide] | 0.038 µM
5 | CN(C)C(=O)CN1Cc2ccc(N3CC[C@@H](Oc4ccc(C(=O)C5CC5(F)F)cc4)C3=O)cc2C1=O (stereo partly drawn) [Example 2-65, 2-[6-[(3R)-3-[4-(2,2-difluorocyclopropanecarbonyl)phenoxy]-2-oxo-pyrrolidin-1-yl]-1-oxo-isoindolin-2-yl]-N,N-dimethyl-acetamide] | 0.125 µM
6 | CN(C)C(=O)CN1Cc2ccc(N3CC[C@@H](Oc4ccc(C(=O)CCC(F)(F)F)cc4)C3=O)cc2C1=O [Example 2-66, N,N-dimethyl-2-[1-oxo-6-[(3R)-2-oxo-3-[4-(4,4,4-trifluorobutanoyl)phenoxy]pyrrolidin-1-yl]isoindolin-2-yl]acetamide] | 0.052 µM
7 | O=C(O)CN1Cc2c(F)cc(N3CC[C@@H](Oc4ccc(OCC5CC5)nc4)C3=O)cc2C1=O [Example 3-01, 2-[6-[(3R)-3-[[6-(cyclopropylmethoxy)-3-pyridyl]oxy]-2-oxo-pyrrolidin-1-yl]-4-fluoro-1-oxo-isoindolin-2-yl]acetic acid] | 1.05 µM
8 | O=C(O)CN1Cc2ccc(N3CC[C@@H](Oc4ccc(OCC5CC5)nc4)C3=O)cc2C1=O [Example 3-02, 2-[6-[(3R)-3-[[6-(cyclopropylmethoxy)-3-pyridyl]oxy]-2-oxo-pyrrolidin-1-yl]-1-oxo-isoindolin-2-yl]acetic acid] | 0.443 µM
9 | O=C(O)CN1Cc2c(F)cc(N3CC[C@@H](Oc4ccc(OCCC5CC5)nc4)C3=O)cc2C1=O [Example 3-03, 2-[6-[(3R)-3-[[6-(2-cyclopropylethoxy)-3-pyridyl]oxy]-2-oxo-pyrrolidin-1-yl]-4-fluoro-1-oxo-isoindolin-2-yl]acetic acid] | 0.087 µM
10 | O=C(O)CNC(=O)CN1Cc2ccc(N3CC[C@@H](Oc4ccc(OCC5CC5)nc4)C3=O)cc2C1=O [Example 3-04, 2-[[2-[6-[(3R)-3-[[6-(cyclopropylmethoxy)-3-pyridyl]oxy]-2-oxo-pyrrolidin-1-yl]-1-oxo-isoindolin-2-yl]acetyl]amino]acetic acid] | 0.807 µM
11 | O=C(O)CN1Cc2ccc(N3CC[C@@H](Oc4ccc(OCC(F)(F)F)nc4)C3=O)cc2C1=O [Example 3-05, 2-[1-oxo-6-[(3R)-2-oxo-3-[[6-(2,2,2-trifluoroethoxy)-3-pyridyl]oxy]pyrrolidin-1-yl]isoindolin-2-yl]acetic acid] | 0.544 µM
12 | O=C(CN1Cc2ccc(N3CC[C@@H](Oc4ccc(OCC5CC5)nc4)C3=O)cc2C1=O)N1CCCC1 [Example 4-01, 6-[(3R)-3-[[6-(cyclopropylmethoxy)-3-pyridyl]oxy]-2-oxo-pyrrolidin-1-yl]-2-(2-oxo-2-pyrrolidin-1-yl-ethyl)isoindolin-1-one] | 0.106 µM
13 | COCCNC(=O)CN1Cc2ccc(N3CC[C@@H](Oc4ccc(OCC5CC5)nc4)C3=O)cc2C1=O [Example 4-02, 2-[6-[(3R)-3-[[6-(cyclopropylmethoxy)-3-pyridyl]oxy]-2-oxo-pyrrolidin-1-yl]-1-oxo-isoindolin-2-yl]-N-(2-methoxyethyl)acetamide] | 0.144 µM
14 | O=C(CN1Cc2ccc(N3CC[C@@H](Oc4ccc(OCC5CC5)nc4)C3=O)cc2C1=O)N1CCC(O)CC1 [Example 4-03, 6-[(3R)-3-[[6-(cyclopropylmethoxy)-3-pyridyl]oxy]-2-oxo-pyrrolidin-1-yl]-2-[2-(4-hydroxy-1-piperidyl)-2-oxo-ethyl]isoindolin-1-one] | 0.206 µM
15 | O=C(CN1Cc2ccc(N3CC[C@@H](Oc4ccc(OCC5CC5)nc4)C3=O)cc2C1=O)N1CC(O)C1 [Example 4-04, 6-[(3R)-3-[[6-(cyclopropylmethoxy)-3-pyridyl]oxy]-2-oxo-pyrrolidin-1-yl]-2-[2-(3-hydroxyazetidin-1-yl)-2-oxo-ethyl]isoindolin-1-one] | 0.197 µM
16 | O=C(CN1Cc2ccc(N3CC[C@@H](Oc4ccc(OCC5CC5)nc4)C3=O)cc2C1=O)NCCO [Example 4-05, 2-[6-[(3R)-3-[[6-(cyclopropylmethoxy)-3-pyridyl]oxy]-2-oxo-pyrrolidin-1-yl]-1-oxo-isoindolin-2-yl]-N-(2-hydroxyethyl)acetamide] | 0.249 µM
17 | CN(CCO)C(=O)CN1Cc2ccc(N3CC[C@@H](Oc4ccc(OCC5CC5)nc4)C3=O)cc2C1=O [Example 4-06, 2-[6-[(3R)-3-[[6-(cyclopropylmethoxy)-3-pyridyl]oxy]-2-oxo-pyrrolidin-1-yl]-1-oxo-isoindolin-2-yl]-N-(2-hydroxyethyl)-N-methyl-acetamide] | 0.281 µM
18 | NC(=O)CN1Cc2ccc(N3CC[C@@H](Oc4ccc(OCC5CC5)nc4)C3=O)cc2C1=O [Example 4-07, 2-[6-[(3R)-3-[[6-(cyclopropylmethoxy)-3-pyridyl]oxy]-2-oxo-pyrrolidin-1-yl]-1-oxo-isoindolin-2-yl]acetamide] | 0.163 µM
19 | O=C(CN1Cc2ccc(N3CC[C@@H](Oc4ccc(OCC5CC5)nc4)C3=O)cc2C1=O)NC1CC1 [Example 4-08, N-cyclopropyl-2-[6-[(3R)-3-[[6-(cyclopropylmethoxy)-3-pyridyl]oxy]-2-oxo-pyrrolidin-1-yl]-1-oxo-isoindolin-2-yl]acetamide] | 0.168 µM
20 | CNC(=O)CN1Cc2ccc(N3CC[C@@H](Oc4ccc(OCC5CC5)nc4)C3=O)cc2C1=O [Example 4-09, 2-[6-[(3R)-3-[[6-(cyclopropylmethoxy)-3-pyridyl]oxy]-2-oxo-pyrrolidin-1-yl]-1-oxo-isoindolin-2-yl]-N-methyl-acetamide] | 0.107 µM
21 | O=C(CN1Cc2ccc(N3CC[C@@H](Oc4ccc(Oc5ccc(F)cc5)nc4)C3=O)cc2C1=O)N1CC(O)C1 [Example 4-10, 6-[(3R)-3-[[6-(4-fluorophenoxy)-3-pyridyl]oxy]-2-oxo-pyrrolidin-1-yl]-2-[2-(3-hydroxyazetidin-1-yl)-2-oxo-ethyl]isoindolin-1-one] | 0.208 µM
22 | O=C(CN1Cc2ccc(N3CC[C@@H](Oc4ccc(Oc5ccc(F)cc5)nc4)C3=O)cc2C1=O)N1CCC(O)CC1 [Example 4-11, 6-[(3R)-3-[[6-(4-fluorophenoxy)-3-pyridyl]oxy]-2-oxo-pyrrolidin-1-yl]-2-[2-(4-hydroxy-1-piperidyl)-2-oxo-ethyl]isoindolin-1-one] | 0.218 µM
23 | CN(CCO)C(=O)CN1Cc2ccc(N3CC[C@@H](Oc4ccc(Oc5ccc(F)cc5)nc4)C3=O)cc2C1=O [Example 4-12, 2-[6-[(3R)-3-[[6-(4-fluorophenoxy)-3-pyridyl]oxy]-2-oxo-pyrrolidin-1-yl]-1-oxo-isoindolin-2-yl]-N-(2-hydroxyethyl)-N-methyl-acetamide] | 0.297 µM
24 | CCOc1ccc(O[C@@H]2CCN(c3cc(F)c4c(c3)C(=O)N(CC(=O)NC)C4)C2=O)cn1 [Example 4-13, 2-[6-[(3R)-3-[(6-ethoxy-3-pyridyl)oxy]-2-oxo-pyrrolidin-1-yl]-4-fluoro-1-oxo-isoindolin-2-yl]-N-methyl-acetamide] | 0.326 µM
25 | CCOc1ccc(O[C@@H]2CCN(c3cc(F)c4c(c3)C(=O)N(CC(=O)N(CC)CC)C4)C2=O)cn1 [Example 4-14, 2-[6-[(3R)-3-[(6-ethoxy-3-pyridyl)oxy]-2-oxo-pyrrolidin-1-yl]-4-fluoro-1-oxo-isoindolin-2-yl]-N,N-diethyl-acetamide] | 0.288 µM
26 | CCOc1ccc(O[C@@H]2CCN(c3cc(F)c4c(c3)C(=O)N(CC(=O)NCCO)C4)C2=O)cn1 [Example 4-15, 2-[6-[(3R)-3-[(6-ethoxy-3-pyridyl)oxy]-2-oxo-pyrrolidin-1-yl]-4-fluoro-1-oxo-isoindolin-2-yl]-N-(2-hydroxyethyl)acetamide] | 0.547 µM
27 | CCOc1ccc(O[C@@H]2CCN(c3cc(F)c4c(c3)C(=O)N(CC(N)=O)C4)C2=O)cn1 [Example 4-16, 2-[6-[(3R)-3-[(6-ethoxy-3-pyridyl)oxy]-2-oxo-pyrrolidin-1-yl]-4-fluoro-1-oxo-isoindolin-2-yl]acetamide] | 0.271 µM
28 | CCOc1ccc(O[C@@H]2CCN(c3cc(F)c4c(c3)C(=O)N(CC(=O)N3CCCC3)C4)C2=O)cn1 [Example 4-17, 6-[(3R)-3-[(6-ethoxy-3-pyridyl)oxy]-2-oxo-pyrrolidin-1-yl]-4-fluoro-2-(2-oxo-2-pyrrolidin-1-yl-ethyl)isoindolin-1-one] | 0.191 µM
